Laboratory results taken from patent US20240381872A1, “SUBSTITUTED 2,3-DIHYDRO[1,3]THIAZOLO[4,5-B]PYRIDINES, SALTS THEREOF AND THEIR USE AS HERBICIDALLY ACTIVE SUBSTANCES” (BAYER AKTIENGESELLSCHAFT, priority 2021, published 2024).

Key:
Type in all cases: in vivo
[1] = test system: Alopecurus myosuroides (ALOMY); experiment: Herbicidal pre-emergence action, section A (Table A2); conditions: application rate 1280 g/ha; visual grading after ca. 3 weeks vs untreated controls
Excerpt: (§1) Seeds of mono- and dicotyledonous weed plants were sown in plastic pots (double sowings with one species of mono- and one species of dicotyledonous weed plants per pot), in sandy loam, and covered with soil. The compounds according to the invention, formulated in the form of wettable powders (WP) or as emulsifiable concentrates (EC), were applied to the surface of the covering soil as aqueous suspension or emulsion, with the addition of 0.5% of an additive, at an application rate of 600 l of water per hectare (converted). Following treatment, the pots were placed in a greenhouse and kept under optimum growth conditions for the test plants. The visual grading of the damage to the test plants was carried out after ca. 3 weeks in comparison to untreated controls (herbicidal effect in percent (%): 100% effect=plants have died off, 0% effect=as control plants).

Setaria viridis (SETVI) [2] = experiment: Herbicidal pre-emergence action, section A (Table A8)
Excerpt: as §1

Veronica persica (VERPE) [3] = experiment: Herbicidal pre-emergence action, section A (Table A10)
Excerpt: as §1

Kochia scoparia (KCHSC) [4] = experiment: Herbicidal post-emergence action, section B (Table B4); conditions: application rate 1280 g/ha; visual rating about 3 weeks after treatment vs untreated controls
Experimental: (§2) Seeds of mono- and dicotyledonous weed plants were placed in plastic pots in sandy loam soil (doubly sown with in each case one species of mono- or dicotyledonous weed plants per pot), covered with soil and cultivated in a greenhouse under controlled growth conditions. 2 to 3 weeks after sowing, the test plants were treated at the one-leaf stage. The compounds of the invention, formulated in the form of wettable powders (WP) or as emulsion concentrates (EC), were applied onto the green parts of the plants as aqueous suspension or emulsion with addition of 0.5% additive at a water application rate of 600 liters per hectare (converted). After the test plants had been kept in the greenhouse under optimum growth conditions for about 3 weeks, the activity of the preparations was rated visually in comparison to untreated controls. For example, 100% activity=the plants have died, 0% activity=like control plants.

[5] = test system: Echinochloa crus-galli (ECHCG); experiment: Herbicidal pre-emergence action, section A (Table A3); conditions: visual grading after ca. 3 weeks vs untreated controls; for pre-emergence activity against ECHCG in %: application rate 1280 g/ha
Excerpt: as §1

Kochia scoparia (KCHSC) [6] = experiment: Herbicidal pre-emergence action, section A (Table A4); conditions: application rate 320 g/ha, visual grading after ca. 3 weeks vs untreated controls
Excerpt: as §1

Lolium rigidum (LOLRI) = experiment: Herbicidal pre-emergence action, section A (Table A5); conditions: visual grading after ca. 3 weeks vs untreated controls
Excerpt: as §1

[7] = test system: Matricaria inodora (MATIN); experiment: Herbicidal pre-emergence action, section A (Table A6); conditions: visual grading after ca. 3 weeks vs untreated controls
Excerpt: as §1

Poa annua (POAAN) = experiment: Herbicidal pre-emergence action, section A (Table A7); conditions: visual grading after ca. 3 weeks vs untreated controls
Excerpt: as §1

Stellaria media (STEME) [8] = experiment: Herbicidal pre-emergence action, section A (Table A9); conditions: for pre-emergence activity against STEME in %: application rate 320 g/ha
Excerpt: as §1

[9] = test system: Amaranthus retroflexus (AMARE); experiment: Herbicidal pre-emergence action, section A (Table A11)
Excerpt: as §1

[10] = test system: Digitaria sanguinalis (DIGSA); experiment: Herbicidal pre-emergence action, section A (Table A12)
Excerpt: as §1

[11] = test system: Echinochloa crus-galli (ECHCG); experiment: Herbicidal post-emergence action, section B (Table B3); conditions: application rate 1280 g/ha, rated visually after about 3 weeks
Experimental: as §2

Stellaria media (STEME) [12] = experiment: Herbicidal post-emergence action, section B (Table B9); conditions: application rate 1280 g/ha, visual rating about 3 weeks after treatment vs untreated controls
Experimental: as §2

Setaria viridis (SETVI) [13] = experiment: Herbicidal post-emergence action, section B (Table B8); conditions: application rate 1280 g/ha, visual rating about 3 weeks after treatment vs untreated controls
Experimental: as §2

[14] = test system: Amaranthus retroflexus (AMARE); experiment: Herbicidal post-emergence action, section B (Table B11); conditions: Amaranthus retroflexus, post-emergence, 504 h; application rate 1280 g/ha; visual rating about 3 weeks after treatment vs untreated controls; read-out: post-emergence activity against AMARE in %
Experimental: as §2

Veronica persica (VERPE) [15] = experiment: Herbicidal post-emergence action, section B (Table B10); conditions: application rate 1280 g/ha; visual rating about 3 weeks after treatment vs untreated controls
Experimental: as §2

Row | Structure (SMILES) | pre-emergence activity against ALOMY in % [1] [%] | pre-emergence activity against SETVI in % (Setaria viridis (SETVI) [2]; application rate 1280 g/ha) [%] | pre-emergence activity against VERPE in % (Veronica persica (VERPE) [3]; application rate 1280 g/ha) [%] | post-emergence activity against KCHSC in % (Kochia scoparia (KCHSC) [4]) [%] | pre-emergence activity against ECHCG in % [5] [%] | pre-emergence activity against KCHSC in % (Kochia scoparia (KCHSC) [6]) [%] | pre-emergence activity against MATIN in % ([7]; application rate 1280 g/ha) [%] | pre-emergence activity against POAAN in % (Poa annua (POAAN); application rate 320 g/ha) [%] | pre-emergence activity against STEME in % (Stellaria media (STEME) [8]) [%] | post-emergence activity against STEME in % (Stellaria media (STEME) [12]) [%] | pre-emergence activity against LOLRI in % (Lolium rigidum (LOLRI); application rate 320 g/ha) [%] | pre-emergence activity against AMARE in % ([9]; application rate 320 g/ha) [%] | pre-emergence activity against DIGSA in % ([10]; application rate 320 g/ha) [%] | other results
1 | CS(=O)(=O)N1CSc2cc(Br)c(-c3cccc(Cl)c3F)nc21 [Example I-116] | 90 | 90 | 90 | 90 |  |  |  |  |  |  |  |  |  | 
2 | CCCS(=O)(=O)N1CSc2cc(C)c(-c3cccc(F)c3F)nc21 [Example I-145] | 90 | 100 | 90 |  | 100 | 90 | 90 | 100 | 90 | 90 |  |  |  | pre-emergence activity against LOLRI in % (Lolium rigidum (LOLRI); application rate 1280 g/ha): 100%; pre-emergence activity against AMARE in % ([9]; application rate 1280 g/ha): 90%; pre-emergence activity against DIGSA in % ([10]; application rate 1280 g/ha): 100%; post-emergence activity against ECHCG in % [11]: 90%
3 | Cc1cc2c(nc1-c1cccc(F)c1F)N(S(C)(=O)=O)CS2 [Example I-147, 5-(2,3-difluorophenyl)-6-methyl-3-(methylsulfonyl)-2,3-dihydro[1,3]thiazolo[4,5-b]pyridine] |  |  |  |  |  |  |  |  |  |  |  |  |  | pest or weed control at 320 g/ha ([5]; Echinochloa crus-galli, pre-emergence, 504 h, application rate 320 g/ha, read-out: pre-emergence activity against ECHCG in %): 100%; pest or weed control at 320 g/ha (Kochia scoparia (KCHSC) [6]; Bassia scoparia, pre-emergence, 504 h, read-out: pre-emergence activity against KCHSC in %): 90%; pest or weed control at 1280 g/ha (Lolium rigidum (LOLRI); Lolium rigidum, pre-emergence, 504 h, application rate 1280 g/ha, read-out: pre-emergence activity against LOLRI in %): 90%; pest or weed control at 1280 g/ha ([7]; Tripleurospermum inodorum, pre-emergence, 504 h, application rate 1280 g/ha, read-out: pre-emergence activity against MATIN in %): 90%; pest or weed control at 320 g/ha (Poa annua (POAAN); Poa annua, pre-emergence, 504 h, application rate 320 g/ha, read-out: pre-emergence activity against POAAN in %): 100%; pest or weed control at 320 g/ha (Setaria viridis (SETVI) [2]; Setaria viridis, 504 h, application rate 320 g/ha, read-out: pre-emergence activity against SETVI in %): 100%; pest or weed control at 1280 g/ha (Stellaria media (STEME) [8]; Stellaria media, 504 h, application rate 1280 g/ha, read-out: pre-emergence activity against STEME in %): 90%; pest or weed control at 320 g/ha (Veronica persica (VERPE) [3]; Veronica persica, 504 h, application rate 320 g/ha, read-out: pre-emergence activity against VERPE in %): 90%; pest or weed control at 320 g/ha ([9]; Amaranthus retroflexus, 504 h, application rate 320 g/ha, read-out: pre-emergence activity against AMARE in %): 90%; pest or weed control at 320 g/ha ([10]; Digitaria sanguinalis, 504 h, application rate 320 g/ha, read-out: pre-emergence activity against DIGSA in %): 90%; pest or weed control at 1280 g/ha (Setaria viridis (SETVI) [13]; Setaria viridis, post-emergence, 504 h, read-out: post-emergence activity against SETVI in %): 90%; pest or weed control at 1280 g/ha (Stellaria media (STEME) [12]; Stellaria media, post-emergence, 504 h, read-out: post-emergence activity against STEME in %): 90%; pest or weed control at 1280 g/ha [14]: 90%
4 | COC(=O)CCC(=O)N1CSc2cc(C)c(-c3cccc(F)c3F)nc21 [Example I-153] |  | 100 | 90 |  | 90 | 90 | 90 |  | 90 | 90 | 90 | 90 | 90 | pre-emergence activity against POAAN in % (Poa annua (POAAN); application rate 1280 g/ha): 100%; post-emergence activity against SETVI in % (Setaria viridis (SETVI) [13]): 90%
5 | CC(=O)N1CSc2cc(C)c(-c3cc(F)ccc3F)nc21 [Example I-168] | 90 |  |  | 90 | 100 | 90 |  | 100 | 90 |  | 90 | 90 | 100 | pre-emergence activity against MATIN in % ([7]; application rate 320 g/ha): 90%; pre-emergence activity against SETVI in % (Setaria viridis (SETVI) [2]; application rate 320 g/ha): 100%; pre-emergence activity against VERPE in % (Veronica persica (VERPE) [3]; application rate 320 g/ha): 90%; post-emergence activity against VERPE in % (Veronica persica (VERPE) [15]): 90%
